From ChEMBL document CHEMBL1240349, “Influence of tigecycline on expression of virulence factors in biofilm-associated cells of methicillin-resistant Staphylococcus aureus” (2010)

Legend:
Assay type in all cases: functional
Staphylococcus aureus [1] = assay: Increase in fnbB gene expression in biofilm-associated cells of epidemic methicillin-resistant Staphylococcus aureus isolate 16 at 4 times MIC incubated for 1 hr by whole genome microarray relative to untreated control
Staphylococcus aureus [2] = assay: Decrease in cap8H gene expression in biofilm-associated cells of epidemic methicillin-resistant Staphylococcus aureus isolate 16 at 4 times MIC incubated for 1 hr by whole genome microarray relative to untreated control
Staphylococcus aureus [3] = assay: Increase in infB gene expression in biofilm-associated cells of epidemic methicillin-resistant Staphylococcus aureus isolate 16 at 4 times MIC incubated for 1 hr by whole genome microarray relative to untreated control
Staphylococcus aureus [4] = assay: Increase in tsf gene expression in biofilm-associated cells of epidemic methicillin-resistant Staphylococcus aureus isolate 16 at 4 times MIC incubated for 1 hr by whole genome microarray relative to untreated control
Staphylococcus aureus [5] = assay: Increase in rpsE gene expression in biofilm-associated cells of epidemic methicillin-resistant Staphylococcus aureus isolate 16 at 4 times MIC incubated for 1 hr by whole genome microarray relative to untreated control
Staphylococcus aureus [6] = assay: Increase in rplB gene expression in biofilm-associated cells of epidemic methicillin-resistant Staphylococcus aureus isolate 16 at 4 times MIC incubated for 1 hr by whole genome microarray relative to untreated control
Staphylococcus aureus [7] = assay: Increase in rplN gene expression in biofilm-associated cells of epidemic methicillin-resistant Staphylococcus aureus isolate 16 at 4 times MIC incubated for 1 hr by whole genome microarray relative to untreated control
Staphylococcus aureus [8] = assay: Decrease in tst gene expression in biofilm-associated cells of epidemic methicillin-resistant Staphylococcus aureus isolate 16 at 4 times MIC incubated for 1 hr by whole genome microarray relative to untreated control
Staphylococcus aureus [9] = assay: Increase in clfB gene expression in biofilm-associated cells of epidemic methicillin-resistant Staphylococcus aureus isolate 16 at 4 times MIC incubated for 1 hr by RT-PCR relative to untreated control
Staphylococcus aureus [10] = assay: Increase in ssaA gene expression in biofilm-associated cells of epidemic methicillin-resistant Staphylococcus aureus isolate 16 at 4 times MIC incubated for 1 hr by RT-PCR relative to untreated control
Staphylococcus aureus [11] = assay: Decrease in clpC gene expression in biofilm-associated cells of epidemic methicillin-resistant Staphylococcus aureus isolate 16 at 4 times MIC incubated for 1 hr by RT-PCR relative to untreated control
Staphylococcus aureus [12] = assay: Decrease in clpC expression in biofilm-associated cells of epidemic methicillin-resistant Staphylococcus aureus isolate 16-1 at 4 times MIC incubated for 1 hr by RT-PCR relative to untreated control
Staphylococcus aureus [13] = assay: Decrease in clpB gene expression in biofilm-associated cells of epidemic methicillin-resistant Staphylococcus aureus isolate 16 at 4 times MIC incubated for 1 hr by whole genome microarray relative to untreated control
Staphylococcus aureus [14] = assay: Decrease in sodA gene expression in biofilm-associated cells of epidemic methicillin-resistant Staphylococcus aureus isolate 16 at 4 times MIC incubated for 1 hr by whole genome microarray relative to untreated control
Staphylococcus aureus [15] = assay: Increase in mnhD gene expression in biofilm-associated cells of epidemic methicillin-resistant Staphylococcus aureus isolate 16 at 4 times MIC incubated for 1 hr by whole genome microarray relative to untreated control
Staphylococcus aureus [16] = assay: Increase in mnhG gene expression in biofilm-associated cells of epidemic methicillin-resistant Staphylococcus aureus isolate 16 at 4 times MIC incubated for 1 hr by whole genome microarray relative to untreated control
Staphylococcus aureus [17] = assay: Increase in tcaR gene expression in biofilm-associated cells of epidemic methicillin-resistant Staphylococcus aureus isolate 16 at 4 times MIC incubated for 1 hr by whole genome microarray relative to untreated control
Staphylococcus aureus [18] = assay: Decrease in mecI gene expression in biofilm-associated cells of epidemic methicillin-resistant Staphylococcus aureus isolate 16 at 4 times MIC incubated for 1 hr by whole genome microarray relative to untreated control
Staphylococcus aureus [19] = assay: Increase in topA gene expression in biofilm-associated cells of epidemic methicillin-resistant Staphylococcus aureus isolate 16 at 4 times MIC incubated for 1 hr by whole genome microarray relative to untreated control
Staphylococcus aureus [20] = assay: Increase in dltC gene expression in biofilm-associated cells of epidemic methicillin-resistant Staphylococcus aureus isolate 16 at 4 times MIC incubated for 1 hr by whole genome microarray relative to untreated control
Staphylococcus aureus [21] = assay: Increase in dltA gene expression in biofilm-associated cells of epidemic methicillin-resistant Staphylococcus aureus isolate 16 at 4 times MIC incubated for 1 hr by whole genome microarray relative to untreated control
Staphylococcus aureus [22] = assay: Decrease in sasF gene expression in biofilm-associated cells of epidemic methicillin-resistant Staphylococcus aureus isolate 16 at 4 times MIC incubated for 1 hr by whole genome microarray relative to untreated control
Staphylococcus aureus [23] = assay: Increase in cna expression in biofilm-associated cells of epidemic methicillin-resistant Staphylococcus aureus isolate 16-1 at 4 times MIC incubated for 1 hr by RT-PCR relative to untreated control
Staphylococcus aureus [24] = assay: Decrease in icaC expression in biofilm-associated cells of epidemic methicillin-resistant Staphylococcus aureus isolate 16-1 at 4 times MIC incubated for 1 hr by RT-PCR relative to untreated control
Staphylococcus aureus [25] = assay: Increase in isaA expression in biofilm-associated cells of epidemic methicillin-resistant Staphylococcus aureus isolate 16-1 at 4 times MIC incubated for 1 hr by RT-PCR relative to untreated control
Staphylococcus aureus [26] = assay: Decrease in sasF expression in biofilm-associated cells of epidemic methicillin-resistant Staphylococcus aureus isolate 16-1 at 4 times MIC incubated for 1 hr by RT-PCR relative to untreated control
Staphylococcus aureus [27] = assay: Increase in ssaA expression in biofilm-associated cells of epidemic methicillin-resistant Staphylococcus aureus isolate 16-1 at 4 times MIC incubated for 1 hr by RT-PCR relative to untreated control
Staphylococcus aureus [28] = assay: Decrease in tst expression in biofilm-associated cells of epidemic methicillin-resistant Staphylococcus aureus isolate 16-1 at 4 times MIC incubated for 1 hr by RT-PCR relative to untreated control
Staphylococcus aureus [29] = assay: Increase in icaC expression in biofilm-associated cells of epidemic methicillin-resistant Staphylococcus aureus isolate 16-2 at 4 times MIC incubated for 1 hr by RT-PCR relative to untreated control
Staphylococcus aureus [30] = assay: Decrease in mnhG expression in biofilm-associated cells of epidemic methicillin-resistant Staphylococcus aureus isolate 16-2 at 4 times MIC incubated for 1 hr by RT-PCR relative to untreated control
Staphylococcus aureus [31] = assay: Decrease in sasF expression in biofilm-associated cells of epidemic methicillin-resistant Staphylococcus aureus isolate 16-2 at 4 times MIC incubated for 1 hr by RT-PCR relative to untreated control
Staphylococcus aureus [32] = assay: Increase in ssaA expression in biofilm-associated cells of epidemic methicillin-resistant Staphylococcus aureus isolate 16-2 at 4 times MIC incubated for 1 hr by RT-PCR relative to untreated control
Staphylococcus aureus [33] = assay: Increase in fnbB expression in biofilm-associated cells of epidemic methicillin-resistant Staphylococcus aureus isolate 15 at 4 times MIC incubated for 1 hr by RT-PCR relative to untreated control
Staphylococcus aureus [34] = assay: Increase in ssaA expression in biofilm-associated cells of epidemic methicillin-resistant Staphylococcus aureus isolate 15 at 4 times MIC incubated for 1 hr by RT-PCR relative to untreated control

SMILES: CN(C)c1cc(NC(=O)CNC(C)(C)C)c(O)c2c1C[C@H]1C[C@H]3[C@H](N(C)C)C(O)=C(C(N)=O)C(=O)[C@@]3(O)C(O)=C1C2=O [TIGECYCLINE]
- fold change (FC) (Staphylococcus aureus [1]): 5.34
- fold change (FC) (Staphylococcus aureus [2]): 2.18
- fold change (FC) (Staphylococcus aureus [3]): 2.35
- fold change (FC) (Staphylococcus aureus [4]): 3.23
- fold change (FC) (Staphylococcus aureus [5]): 11.01
- fold change (FC) (Staphylococcus aureus [6]): 13.38
- fold change (FC) (Staphylococcus aureus [7]): 13.76
- fold change (FC) (Staphylococcus aureus [8]): 2.39
- fold change (FC) (Staphylococcus aureus [9]): 7.5
- fold change (FC) (Staphylococcus aureus [10]): 2.04
- fold change (FC) (Staphylococcus aureus [11]): 1.14
- fold change (FC) (Staphylococcus aureus [12]): 1.14
- fold change (FC) (Staphylococcus aureus [13]): 2.49
- fold change (FC) (Staphylococcus aureus [14]): 2.59
- fold change (FC) (Staphylococcus aureus [15]): 1.93
- fold change (FC) (Staphylococcus aureus [16]): 2.85
- fold change (FC) (Staphylococcus aureus [17]): 2.79
- fold change (FC) (Staphylococcus aureus [18]): 2.39
- fold change (FC) (Staphylococcus aureus [19]): 2.26
- fold change (FC) (Staphylococcus aureus [20]): 2.29
- fold change (FC) (Staphylococcus aureus [21]): 2.63
- fold change (FC) (Staphylococcus aureus [22]): 2.3
- fold change (FC) (Staphylococcus aureus [23]): 3.42
- fold change (FC) (Staphylococcus aureus [24]): 2.23
- fold change (FC) (Staphylococcus aureus [25]): 7.68
- fold change (FC) (Staphylococcus aureus [26]): 1.32
- fold change (FC) (Staphylococcus aureus [27]): 2.04
- fold change (FC) (Staphylococcus aureus [28]): 1.51
- fold change (FC) (Staphylococcus aureus [29]): 1.6
- fold change (FC) (Staphylococcus aureus [30]): 6.99
- fold change (FC) (Staphylococcus aureus [31]): 3.53
- fold change (FC) (Staphylococcus aureus [32]): 1.72
- fold change (FC) (Staphylococcus aureus [33]): 1.22
- fold change (FC) (Staphylococcus aureus [34]): 1.17
